Results on one compound are retold here after patent US20120152149A1, “USE OF 1,3-DIOLS AS BIOCIDES” (BASF SE, priority 2009, published 2012).

Holding throughout (assay): Preservation stress test, example formulation 1 (standard emulsion O/W)
Type in all cases: cell-based
What all share (conditions): 1% active substance

One assay has as its system C. albicans ATCC 10231. The procedure:
(§1) Preservation stress tests (PSTs) were carried out in order to determine the preserving activity of the diols. In the preservation stress test, this is simulated through artificial loadings with microorganisms. These can either be inoculated as mixed population or individually in mixtures independent of one another. The inoculated product samples are incubated under defined conditions and, after defined times, samples are taken in order to determine the germ loading. In the case of adequate preservation, the number of microorganisms should, depending on the type, either decrease or remain constant in order to satisfy the requirements specified, e.g. in Ph. Eur. 6.0. To investigate the preserving effect of the diols, application-typical amounts of the diols were incorporated into example formulations. […] [table] These example formulations were used to prepare various mixtures which each comprised 1% active substance or comprised water instead of the active substance as placebo mixtures. These mixtures were in each case inoculated with the test germs such that a germ loading of 10^5-10^6 CFU/g was present in the test mixture. The bacteria were either used individually for the inoculation or as a mixed culture. To determine the starting germ count, immediately after inoculation, an aliquot was taken, diluted in dilution medium (phosphate buffer, 0.07 molar pH 7.4 (+/−0.2), with 1% Tween 80+0.3% soya lecithin), and the surviving germ count was determined in the dilution stages 10^−1 to 10^−3. The inoculated product samples then incubated for a total of 28 d at 20-25° C. After 2 d, 7 d, 14 d and after 28 d, aliquots were taken and diluted in dilution medium (phosphate buffer, 0.07 molar pH 7.4 (+/−0.2), with 1% Tween 80+0.3% soya lecithin). The surviving germ counts were determined in the dilution stages 10^−1 to 10^−4. The reference point taken for determining the reduction in germ count was the respective initial value of the sample. The results were given as logarithmic reductions.

The next assay relates to S. aureus ATCC 6538. The protocol: as §1
The test system of the next assay is E. coli ATCC 10536. The procedure:
as §1

A further assay has as its system A. niger ATCC 16404. The procedure:
as §1

A further assay relates to P. aeruginosa ATCC 15442. The procedure: as §1

On to `CCCCC(O)CO` (centres unmarked) [1,2-Hexanediol, 1,2-hexanediol], for which the “Microbicidal activity given as logarithmic reduction in germ count” value in the assay with C. albicans ATCC 10231 (48 h) is 0 log. Red; with C. albicans ATCC 10231 (7 d) it was 0 log. Red; in the assay on C. albicans ATCC 10231 (14 d), 0 log. Red; with C. albicans ATCC 10231 (28 d), 1 log. Red; with S. aureus ATCC 6538 (48 h), 1 log. Red; in the assay on S. aureus ATCC 6538 (7 d), 1 log. Red. The “Microbicidal activity given as logarithmic reduction in germ count” value in the assay on S. aureus ATCC 6538 (14 d) was “≧3 log. Red”; in the assay with S. aureus ATCC 6538 (28 d), 5 log. Red; in the assay with E. coli ATCC 10536 (48 h), 0 log. Red; with E. coli ATCC 10536 (7 d), 1 log. Red; in the assay on E. coli ATCC 10536 (14 d), 2 log. Red; in the assay with E. coli ATCC 10536 (28 d), “≧3 log. Red”. In addition, the “Microbicidal activity given as logarithmic reduction in germ count” value in the assay on A. niger ATCC 16404 (48 h) is on record as 0 log. Red; in the assay with A. niger ATCC 16404 (7 d), 0 log. Red; in the assay on A. niger ATCC 16404 (14 d) it was 0 log. Red; in the assay with A. niger ATCC 16404 (28 d), 0 log. Red; with P. aeruginosa ATCC 15442 (48 h), 0 log. Red; with P. aeruginosa ATCC 15442 (7 d) it was 1 log. Red. The “Microbicidal activity given as logarithmic reduction in germ count” value with P. aeruginosa ATCC 15442 (14 d) was 1 log. Red; in the assay with P. aeruginosa ATCC 15442 (28 d), “≧3 log. Red”.
